Patent US9643977B2, “Necroptosis inhibitors and methods of use therefor” (President and Fellows of Harvard College, priority 2011, dated 2017)
Where a SMILES comes first, the peptide text is derived from it. The star is where a group is joined. Cbz = O=C(OCc1ccccc1)*; CH2F = FC*

Key:
[1] = test system: TNFα production in BV2 cells; assay: TNFα mRNA by quantitative PCR, BV2 cells treated with Aβ42; assay type: cell-based; details: 10 μM, 30 minutes before Aβ42 200 nM, FIG. 10A
Method: (§1) The levels of TNFα mRNA were measured by quantitative PCR. B) Microglia primary cultures were incubated for 30 minutes with or without 10 μM Nec-1 prior to being treated with Aβ42 (200 nM). TNFα secretion was measured by ELISA. The data correspond to the mean±SD (N=3). C) Cell survival of microglia primary cultures treated with Aβ42 (200 nM) for indicated times with and without Nec1 was measured by CellTiter-Glo® assay. Error bars represent the mean of two different experiments.
(§2) The role played by RIP1 in the induction of TNFα production by amyloid-β in microglial cells was investigated.

L929 cells [2] = assay: Cell viability by ATP assay, L929 cells transfected with Traf2 siRNA; assay type: cell-based; details: 10 μM, 48 hours, FIG. 3A
Method: (§3) In the TNFα signaling pathway, cIAP1, the target of Smac mimetic compounds, interacts closely with another protein, Traf2. L929 cells were transfected with Traf2 siRNA, treated with 10 μM Nec-1 or 1.0 μg/ml anti-TNFα antibody for 48 hours and cell viability measured by ATP assay. […] This death was also dependent on TNFα production, as it was inhibited by treatment with a TNFα neutralizing antibody or with knockdown of TNFR1 (FIGS. 3A and 3B). […] One such treatment is lipopolysaccharide (LPS), a component of the bacterial outer membrane. […] However, treatment of such cells with 10 μM Nec-1 has no effect on TNFα production in this case (FIG. 4).

[3] = test system: TNFα secretion by BV-2 cells; assay: TNFα ELISA, BV-2 cells pretreated with IFNγ and treated with CD40L; assay type: cell-based; details: 100 U/ml IFNγ 20 hours, 0.1 μg/ml CD40L 4 or 8 hours, FIG. 13B
Method: (§4) A, L929 cells were treated with 0.2 μg/ml CD40L, 100 U/ml IFNγ, and/or 1 μg/ml TNFα neutralizing antibody and then treated with 10 μM Nec-1 (right bar) or a DMSO control (left bar) for 24 hours. Viability was measure by ATP luminescence assay. B, BV-2 cells were pretreated with 100 U/ml IFNγ for 20 hours, and treated with 0.1 μg/ml CD40L for 4 or 8 hours. TNFα secretion was measured by ELISA.
To confirm the role of RIP1 in CD40L-induced TNFα production, BV-2 cells were pretreated with IFNγ and CD40L to induce TNFα production and then exposed to Nec-1.

[4] = test system: TNFα production in L929 cells; assay: TNFα ELISA on cell lysates, L929 cells treated with SM-164; assay type: cell-based
Method: (§5) Smac mimetic compounds are IAP antagonists that induce the production of TNFα. Smac mimetic compounds induce the autoubiquitination and degradation of cIAP1. […] This cell death was inhibited by treatment with 10 μM Nec-1, or with 0.2 μg/ml or 1.0 μg/ml of TNFα neutralizing antibody (FIG. 2A).

[5] = test system: TNFα production in J774 cells; assay: TNFα ELISA, J774 cells treated with LPS; assay type: cell-based, murine; details: 10 μM, J774 cells with 1 μg/ml LPS, cell lysate, FIG. 4
Method: as §3

L929 cells [6] = assay: Cell viability by ATP assay, L929 cells treated with Smac mimetic SM-164; assay type: cell-based
Method: as §5

[7] = test system: TNFα secretion by microglia primary cultures; assay: TNFα ELISA, microglia primary cultures treated with Aβ42; assay type: cell-based; details: 10 μM, 30 minutes before Aβ42 200 nM, FIG. 10B
Method: as §1, §2

L929 cells [8] = assay: Cell survival by CellTiter-Glo, L929 cells treated with CD154 and/or IFNγ; assay type: cell-based; details: 10 μM, 32 hrs, CD154 0.1 μg/ml, FIG. 5
Method: To test the involvement of CD40 in necroptosis, L929 cells were treated with CD154 (0.1 μg/ml), IFNγ (100 U/ml) and/or TNFα neutralizing antibody (1 μg/ml) alone or in combination and with or without Nec-1 (10 μM) for 32 hrs. Following treatment, cell survival was determined by CellTiter-Glo (Promega). As depicted in FIG. 5, the death of L929 cells induced by either the presence of either CD154 alone or by the presence of both CD154 and IFNγ was inhibited by Nec-1. Thus, RIP1 kinase selectively mediates intracellular signaling downstream of CD40 stimulation

[9] = test system: TNFα secretion by splenic macrophages; assay: TNFα ELISA, splenic macrophages stimulated by CD154 and IFNγ; assay type: cell-based, C57BL/6 mouse; details: 10 μM, pretreated 1 hour, then 24 hours 1 μg/ml CD154 and 100 U/ml IFNγ, FIG. 6
Method: To further explore the role of RIP1 kinase in mediating CD40 signaling, the effect of necrostatins on the production of TNFα by primary macrophages stimulated by CD154 was tested. Splenocytes isolated from a C57BL/6 mouse were cultured for 10 days in RPMI media with 10% FBS and 50 μM 2-mercaptoethanol. The attached cells were harvested as splenic macrophages. The macrophages were pretreated for 1 hour with 10 μ[…] Nec-1, 10 μM Nec-21, 10 μM Nec-29, or 1 μM Nec-12, then treated for 24 hours with 1 μg/ml recombinant CD154 (CD40L, R&D Systems) and/or 100 U/ml IFNγ as. TNFα secretion in the cell culture supernatant was analyzed by ELISA assay. As depicted in FIG. 6, the production of TNFα in splenic macrophages stimulated by CD154 in the presence of IFNγ was inhibited by Nec-1 as well as by the three other necrostatins tested, Nec-12, Nec-21 and Nec-29. These experiments indicate that RIP1 is involved in mediating TNFα production downstream of CD40 activation.

[10] = test system: microglia primary cultures; assay: Cell survival by CellTiter-Glo, microglia primary cultures treated with Aβ42; assay type: cell-based; details: Aβ42 200 nM, FIG. 10C
Method: as §1, §2

[11] = test system: TNFα production in J774 cells; assay: TNFα ELISA, J774 cells treated with zVAD.fmk (cell lysate and supernatant); assay type: cell-based, murine; details: FIG. 1
Method: The role of RIP1 kinase in the regulation of TNFα induction was investigated. zVAD.fmk is a caspase inhibitor that induces TNFα expression in various cell types. Murine macrophage J774 cells were treated with 20 μM zVAD.fmk and 10 μM of necrostatin and RIP1 inhibitor Nec-1 for the various periods of time. Cell lysates were extracted and analyzed by TNFα specific ELISA. As depicted in FIG. 1, treatment with zVAD.fmk induces an upregulation in TNFα protein levels as measured by ELISA in the cell lysate.

L929 cells [12] = assay: Viability by ATP luminescence assay, L929 cells treated with CD40L and IFNγ; assay type: cell-based; details: 10 μM, 24 hours, 0.2 μg/ml CD40L, 100 U/ml IFNγ, FIG. 13A
Method: as §4
The role of RIP1 in CD40L induced TNFα production was investigated.

CN1C(=O)C(Cc2c[nH]c3ccccc23)NC1=S (stereo not shown) [Nec-1]
levels of TNFα (mRNA) after Aβ42 exposure [1]: reduced levels of TNFα
inhibition of cell death induced by loss of Traf2 (L929 cells [2]): completely inhibit
inhibition of CD40L-induced TNFα production [3]: significantly inhibited
inhibition of SM-164-induced TNFα production ([4]; co-treatment, FIG. 2B): completely inhibited
effect on LPS-induced TNFα production [5]: no effect
inhibition of SM-164-induced cell death (L929 cells [6]; 10 μM, L929 cells with 100 nM SM-164, FIG. 2A): inhibited
levels of TNFα (secretion) after Aβ42 exposure [7]: reduced levels of TNFα
inhibition of cell death induced by CD154 alone (L929 cells [8]): inhibited
inhibition of cell death induced by both CD154 and IFNγ (L929 cells [8]; IFNγ 100 U/ml): inhibited
inhibition of TNFα production stimulated by CD154 in the presence of IFNγ [9]: inhibited
effect on survival of microglia primary cells [10]: minor protective effect
inhibition of zVAD.fmk-induced production of TNFα ([11]; 10 μM co-treatment with 20 μM zVAD.fmk): almost completely inhibits
viability of cells cultured in IFNγ and CD40L (L929 cells [12]): largely restored

CN[C@@H](C)C(=O)N[C@H]1CCCC[C@H]2CC[C@@H](C(=O)N[C@@H](c3ccccc3)c3cn(CCCCc4ccc(CCCCn5cc([C@@H](NC(=O)[C@@H]6CC[C@@H]7CCCC[C@H](NC(=O)[C@H](C)NC)C(=O)N76)c6ccccc6)nn5)cc4)nn3)N2C1=O [SM-164, reference compound]
TNFα production after treatment ([4]; SM-164 treatment, ELISA on cell lysates): induced an increase
cell death induced by treatment (L929 cells [6]; 100 nM, L929 cells, ATP assay): undergo cell death

COC(=O)C[C@H](NC(=O)[C@H](C)NC(=O)[C@@H](NC(=O)OCc1ccccc1)C(C)C)C(=O)CF [zVAD.fmk, reference compound] (Cbz-Val-Ala-Asp(OMe)-CH2F)
TNFα protein levels after treatment ([11]; 20 μM zVAD.fmk, ELISA in cell lysate): upregulation
